One test deals with T1, SETD2(1434-1711) (Homo sapiens, UniProt Q9BYW2).
T1 construct: SETD2 (1434-1711) Assay; catalogue N/A
T1 sequence (Q9BYW2 1434-1711): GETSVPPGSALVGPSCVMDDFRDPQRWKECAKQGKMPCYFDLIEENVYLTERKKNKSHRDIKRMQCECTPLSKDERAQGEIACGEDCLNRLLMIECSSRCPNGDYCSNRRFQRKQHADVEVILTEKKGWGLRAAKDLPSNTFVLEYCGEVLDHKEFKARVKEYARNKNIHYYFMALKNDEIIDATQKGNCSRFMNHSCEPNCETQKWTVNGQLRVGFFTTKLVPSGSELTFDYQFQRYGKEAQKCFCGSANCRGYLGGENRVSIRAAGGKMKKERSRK
Description: SETD2 (1434-1711) assay. It counts as biochemical. The following applies: read-out: SETD2 (1434-1711).

A further test deals with H3K36me3 in A549 cells. Description: In-Cell Western (ICW) assay of SETD2 inhibitors (A549 assay). The conditions noted are these: A549 cells, read-out: SETD2 A549. The class given is cell-based, human. The gist of the method: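 H3K36me3 In-Cell Western: cells exposed to compound for 3 days at 4,000 cells/well, 37° C. DRAQ5 (1:1000) marked cell number, with 700/800-channel Licor read-out.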

Where two headings read alike, the source gives them in different places. Bounds are passed on as bounds.

With `Cc1ccc(F)c2cc(C(=O)Nc3cc(Cl)cc([C@H]4CC[C@@H](N(C)C)CC4)c3)[nH]c12` [compound 106], the IC50 at SETD2(1434-1711) was found to be 3 nM; with H3K36me3 in A549 cells, 200 nM.
`Cc1ccc(F)c2cc(C(=O)N[C@@H]3CCC[C@@H](N4CCN(C5CCOC5)CC4)C3)[nH]c12` (some centres unmarked) [compound 925]: the IC50 was 8800 nM on SETD2(1434-1711) and > 2000 nM in the test with H3K36me3 in A549 cells (Homo sapiens).
The matching figures for `CC(=O)N1CCN([C@H]2CCC[C@@H](NC(=O)c3cc4c(F)ccc(C)c4[nH]3)C2)C[C@@H]1CO` [compound 1099]: 10 nM and 100 nM.
In the case of `Cc1ccc(F)c2cc(C(=O)Nc3cccc(-c4ccc(OCCO)cc4)c3)[nH]c12` [compound 231], the IC50 at SETD2(1434-1711) worked out at 100 nM; in the test on H3K36me3 in A549 cells it was 500 nM.
Consider `Cc1ccnnc1C(NC(=O)c1cc2c(F)ccc(C)c2[nH]1)C1CC1` (centres unmarked) [compound 450], for which the IC50 on SETD2(1434-1711) came to 2300 nM; in the test on H3K36me3 in A549 cells (Homo sapiens) it was 5600 nM.
The matching figures for `CC(=O)N1CCN([C@H]2CCC[C@@H](NC(=O)c3cc4c(F)ccc(C)c4[nH]3)C2)C[C@H]1CO` [compound 1098]: 30 nM and 300 nM.
`CNc1cccc(-c2cccc(NC(=O)c3cc4c(F)ccc(C)c4[nH]3)c2)n1` [compound 326]: the IC50 on SETD2(1434-1711) is 200 nM; with H3K36me3 in A549 cells (Homo sapiens), 1600 nM.
For `Cc1cccnc1C(NC(=O)C1Cc2cccc(C)c2N1)C1CC1` (centres unmarked) [compound 607], the IC50 on SETD2(1434-1711) is > 50000 nM; with H3K36me3 in A549 cells (Homo sapiens), > 25000 nM.
With `CC(=O)N1[C@H](C)CN([C@H]2CCC[C@@H](NC(=O)c3cc4c(F)ccc(C)c4[nH]3)C2)C[C@H]1C` [compound 1062], the IC50 on SETD2(1434-1711) and with H3K36me3 in A549 cells (Homo sapiens) was 10 nM in each case.
For the compound `CC(=O)N1C(C)CN(C2CCCC(NC(=O)c3cc4c(F)ccc(C)c4[nH]3)C2)CC1C` (centres unmarked) [compound 1123], the IC50 is 500 nM on SETD2(1434-1711) and 1400 nM in the test with H3K36me3 in A549 cells.
Turning to `CC(=O)N1CCN(c2cccc(NC(=O)c3cc4c(F)ccc(C)c4[nH]3)c2)CC1C(F)(F)F` (centres unmarked) [compound 77], the IC50 at SETD2(1434-1711) was 60 nM; in the test with H3K36me3 in A549 cells, 200 nM.
With `Cc1ccc(F)c2cc(C(=O)Nc3cccc(-c4ccno4)c3)[nH]c12` [compound 196], the IC50 at SETD2(1434-1711) amounted to 100 nM; with H3K36me3 in A549 cells (Homo sapiens), 400 nM.
`Cc1ccc(F)c2cc(C(=O)Nc3cccc(N4CCC(NCCN)CC4)c3)[nH]c12` [compound 413]: the IC50 is 30 nM on SETD2(1434-1711) and 3100 nM with H3K36me3 in A549 cells.
Turning to `Cc1ccc(F)c2cc(C(=O)Nc3cc(F)cc(N4CCC(N5CCN(C(=O)CN(C)C)CC5)C4)c3)[nH]c12` (centres unmarked) [compound 39], the figures for the IC50 on SETD2(1434-1711) and in the test with H3K36me3 in A549 cells were 4 nM and 90 nM, respectively.
In the case of `CCN(CC)CCC(=O)N[C@H]1CC[C@H](NC(=O)c2cc3cccc(C)c3[nH]2)CC1` [compound 589], the IC50 on SETD2(1434-1711) was 43600 nM; in the test with H3K36me3 in A549 cells (Homo sapiens), > 25000 nM.
In the case of `Cc1ccc(F)c2cc(C(=O)N[C@@H]3CCC[C@H](c4ccncn4)C3)[nH]c12` [compound 1003], the IC50 at SETD2(1434-1711) was 30 nM; in the test with H3K36me3 in A549 cells (Homo sapiens) it was 200 nM.
Regarding `Cc1ccc(F)c2cc(C(=O)Nc3cc(Cl)cc([C@H]4CC[C@H](N(C)C)CC4)c3)[nH]c12` [compound 339], the results for the IC50 at SETD2(1434-1711) and in the test on H3K36me3 in A549 cells (Homo sapiens) were 40 nM and 1700 nM, respectively.
With `CCN1CCN(c2cccc(NC(=O)c3cc4c(F)ccc(C)c4[nH]3)c2)CC1=O` [compound 88], the IC50 came to 50 nM at SETD2(1434-1711) and 200 nM with H3K36me3 in A549 cells.
As for `Cc1cccc2cc(C(=O)Nc3ccc4ncc(CN(C)C)n4c3C)[nH]c12` [compound 495], the IC50 at SETD2(1434-1711) was 1800 nM; in the test on H3K36me3 in A549 cells, 13300 nM.
The matching figures for `Cc1ccc(F)c2cc(C(=O)NC3CCCC(N4CCN5C(=O)OCC5C4)C3)[nH]c12` (centres unmarked) [compound 1134]: 1000 nM and > 2000 nM.
As to `Cc1ccc(F)c2cc(C(=O)NC3CCCC(N4CCN(C5CC5)C(=O)C4)C3)[nH]c12` (centres unmarked) [compound 978], the IC50 was 2300 nM at SETD2(1434-1711) and > 2000 nM in the test on H3K36me3 in A549 cells.
With `Cc1ccc(F)c2cc(C(=O)Nc3cccc(N4CCOCC4=O)c3)[nH]c12` [compound 209], the values for the IC50 at SETD2(1434-1711) and with H3K36me3 in A549 cells (Homo sapiens) were 200 nM and 400 nM, respectively.

For the origin of these results see patent publication US12116358B2, “Substituted indoles and methods of use thereof” (EPIZYME, INC., priority 2018, dated 2024).
